Reference: PubChem BioAssay (NCI)
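The compound was tested at five concentrations on cells cultured in 96-well plates, with a 48-hour exposure period. TGI marks complete inhibition of growth.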

How the values were obtained:
Test in all cases: NCI-60 cell line screen, 48 h
786-0 renal = test system: 786-0 renal
A498 renal = test system: A498 renal
A549 NSCLC = test system: A549 NSCLC
ACHN renal = test system: ACHN renal
CAKI-1 renal = test system: CAKI-1 renal
CCRF-CEM leukemia = test system: CCRF-CEM leukemia
COLO 205 colon = test system: COLO 205 colon
DLD-1 colon = test system: DLD-1 colon
DMS 114 small cell lung = test system: DMS 114 small cell lung
DMS 273 small cell lung = test system: DMS 273 small cell lung
EKVX NSCLC = test system: EKVX NSCLC
HCC-2998 colon = test system: HCC-2998 colon
HCT-116 colon = test system: HCT-116 colon
HCT-15 colon = test system: HCT-15 colon
HL-60(TB) leukemia = test system: HL-60(TB) leukemia
HOP-62 NSCLC = test system: HOP-62 NSCLC
HT29 colon = test system: HT29 colon
IGROV1 ovarian = test system: IGROV1 ovarian
K-562 leukemia = test system: K-562 leukemia
KM12 colon = test system: KM12 colon
KM20L2 colon = test system: KM20L2 colon
LOX IMVI melanoma = test system: LOX IMVI melanoma
LXFL 529 NSCLC = test system: LXFL 529 NSCLC
M14 melanoma = test system: M14 melanoma
M19-MEL melanoma = test system: M19-MEL melanoma
MALME-3M melanoma = test system: MALME-3M melanoma
MOLT-4 leukemia = test system: MOLT-4 leukemia
NCI-H23 lung = test system: NCI-H23 lung
NCI-H460 lung = test system: NCI-H460 lung
NCI-H522 lung = test system: NCI-H522 lung
OVCAR-3 ovarian = test system: OVCAR-3 ovarian
OVCAR-4 ovarian = test system: OVCAR-4 ovarian
OVCAR-8 ovarian = test system: OVCAR-8 ovarian
RPMI-8226 leukemia = test system: RPMI-8226 leukemia
RXF 393 renal = test system: RXF 393 renal
RXF-631 renal = test system: RXF-631 renal
SF-268 CNS = test system: SF-268 CNS
SF-295 CNS = test system: SF-295 CNS
SF-539 CNS = test system: SF-539 CNS
SK-MEL-2 melanoma = test system: SK-MEL-2 melanoma
SK-MEL-5 melanoma = test system: SK-MEL-5 melanoma
SK-OV-3 ovarian = test system: SK-OV-3 ovarian
SNB-19 CNS = test system: SNB-19 CNS
SNB-75 CNS = test system: SNB-75 CNS
SR leukemia = test system: SR leukemia
SW-620 colon = test system: SW-620 colon
U251 CNS = test system: U251 CNS
UACC-257 melanoma = test system: UACC-257 melanoma
UACC-62 melanoma = test system: UACC-62 melanoma
UO-31 renal = test system: UO-31 renal
XF 498 CNS = test system: XF 498 CNS
HOP-18 NSCLC = test system: HOP-18 NSCLC
HOP-92 NSCLC = test system: HOP-92 NSCLC
NCI-H226 lung = test system: NCI-H226 lung
OVCAR-5 ovarian = test system: OVCAR-5 ovarian
SK-MEL-28 melanoma = test system: SK-MEL-28 melanoma
SNB-78 CNS = test system: SNB-78 CNS
TK-10 renal = test system: TK-10 renal

SMILES: COc1ccc(S(=O)(=O)N/N=C/CN2C(=O)c3ccccc3C2=O)cc1OC
- TGI (786-0 renal): > 100 µM
- TGI (A498 renal): > 100 µM
- TGI (A549 NSCLC): > 100 µM
- TGI (ACHN renal): > 100 µM
- TGI (CAKI-1 renal): > 100 µM
- TGI (CCRF-CEM leukemia): > 100 µM
- TGI (COLO 205 colon): > 100 µM
- TGI (DLD-1 colon): > 100 µM
- TGI (DMS 114 small cell lung): > 100 µM
- TGI (DMS 273 small cell lung): > 100 µM
- TGI (EKVX NSCLC): > 100 µM
- TGI (HCC-2998 colon): > 100 µM
- TGI (HCT-116 colon): > 100 µM
- TGI (HCT-15 colon): > 100 µM
- TGI (HL-60(TB) leukemia): > 100 µM
- TGI (HOP-62 NSCLC): > 100 µM
- TGI (HT29 colon): > 100 µM
- TGI (IGROV1 ovarian): > 100 µM
- TGI (K-562 leukemia): > 100 µM
- TGI (KM12 colon): > 100 µM
- TGI (KM20L2 colon): > 100 µM
- TGI (LOX IMVI melanoma): > 100 µM
- TGI (LXFL 529 NSCLC): > 100 µM
- TGI (M14 melanoma): > 100 µM
- TGI (M19-MEL melanoma): > 100 µM
- TGI (MALME-3M melanoma): > 100 µM
- TGI (MOLT-4 leukemia): > 100 µM
- TGI (NCI-H23 lung): > 100 µM
- TGI (NCI-H460 lung): > 100 µM
- TGI (NCI-H522 lung): > 100 µM
- TGI (OVCAR-3 ovarian): > 100 µM
- TGI (OVCAR-4 ovarian): > 100 µM
- TGI (OVCAR-8 ovarian): > 100 µM
- TGI (RPMI-8226 leukemia): > 100 µM
- TGI (RXF 393 renal): > 100 µM
- TGI (RXF-631 renal): > 100 µM
- TGI (SF-268 CNS): > 100 µM
- TGI (SF-295 CNS): > 100 µM
- TGI (SF-539 CNS): > 100 µM
- TGI (SK-MEL-2 melanoma): > 100 µM
- TGI (SK-MEL-5 melanoma): > 100 µM
- TGI (SK-OV-3 ovarian): > 100 µM
- TGI (SNB-19 CNS): > 100 µM
- TGI (SNB-75 CNS): > 100 µM
- TGI (SR leukemia): > 100 µM
- TGI (SW-620 colon): > 100 µM
- TGI (U251 CNS): > 100 µM
- TGI (UACC-257 melanoma): > 100 µM
- TGI (UACC-62 melanoma): > 100 µM
- TGI (UO-31 renal): > 100 µM
- TGI (XF 498 CNS): > 100 µM

SMILES: CC(=O)O[C@H]1CC[C@@]2(C)C(CC[C@]3(C)C2CC[C@]2(C)Oc4c(C)cc(O)cc4C[C@@H]23)C1(C)C (some centres not stated)
- TGI (786-0 renal): 4.44 µM
- TGI (A498 renal): 26 µM
- TGI (A549 NSCLC): 21.2 µM
- TGI (ACHN renal): 17.5 µM
- TGI (CAKI-1 renal): 21.8 µM
- TGI (CCRF-CEM leukemia): 16.8 µM
- TGI (COLO 205 colon): 29.7 µM
- TGI (DLD-1 colon): 27.1 µM
- TGI (DMS 114 small cell lung): 26.7 µM
- TGI (DMS 273 small cell lung): 12.7 µM
- TGI (EKVX NSCLC): 46.9 µM
- TGI (HCC-2998 colon): 22.2 µM
- TGI (HCT-116 colon): 18.1 µM
- TGI (HCT-15 colon): 14.9 µM
- TGI (HL-60(TB) leukemia): 14.7 µM
- TGI (HOP-18 NSCLC): 26.4 µM
- TGI (HOP-62 NSCLC): 30.6 µM
- TGI (HOP-92 NSCLC): 18.2 µM
- TGI (HT29 colon): 23.9 µM
- TGI (IGROV1 ovarian): 30 µM
- TGI (K-562 leukemia): 29.3 µM
- TGI (KM12 colon): 22.6 µM
- TGI (KM20L2 colon): 19.2 µM
- TGI (LOX IMVI melanoma): 23.8 µM
- TGI (LXFL 529 NSCLC): 13.6 µM
- TGI (M14 melanoma): 27.5 µM
- TGI (M19-MEL melanoma): 25.8 µM
- TGI (MALME-3M melanoma): 22.8 µM
- TGI (MOLT-4 leukemia): 9.75 µM
- TGI (NCI-H226 lung): 35.3 µM
- TGI (NCI-H23 lung): 21.6 µM
- TGI (NCI-H460 lung): 16.5 µM
- TGI (NCI-H522 lung): 21.5 µM
- TGI (OVCAR-3 ovarian): 25.7 µM
- TGI (OVCAR-4 ovarian): 22.2 µM
- TGI (OVCAR-5 ovarian): 23.6 µM
- TGI (OVCAR-8 ovarian): 23.8 µM
- TGI (RPMI-8226 leukemia): 6.96 µM
- TGI (RXF 393 renal): 7.09 µM
- TGI (RXF-631 renal): 19.4 µM
- TGI (SF-268 CNS): 21.4 µM
- TGI (SF-295 CNS): 5.09 µM
- TGI (SK-MEL-2 melanoma): 21.4 µM
- TGI (SK-MEL-28 melanoma): 22.9 µM
- TGI (SK-MEL-5 melanoma): 18.4 µM
- TGI (SK-OV-3 ovarian): 22.2 µM
- TGI (SNB-19 CNS): 14.4 µM
- TGI (SNB-75 CNS): 8.12 µM
- TGI (SNB-78 CNS): 21.8 µM
- TGI (SR leukemia): 7.12 µM
- TGI (SW-620 colon): 5.71 µM
- TGI (TK-10 renal): 29.3 µM
- TGI (U251 CNS): 7.96 µM
- TGI (UACC-257 melanoma): 22.8 µM
- TGI (UACC-62 melanoma): 23.7 µM
- TGI (UO-31 renal): 14.3 µM
